Source: PubChem BioAssay (NCI)
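Exposure lasted 48 hours, with cells grown in 96-well plates and compounds tested at five concentrations. Abbreviation: GI50, concentration required for 50% inhibition of growth. TGI denotes the concentration required for complete inhibition of growth.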

What was measured:
Experiment in all cases: NCI-60 cell line screen, 48 h
[1] = tested on: A498 renal
[2] = tested on: COLO 205 colon
[3] = tested on: NCI-H23 lung
[4] = tested on: OVCAR-5 ovarian
[5] = tested on: NCI-H226 lung
[6] = tested on: SNB-19 CNS
[7] = tested on: MCF7 breast
[8] = tested on: RPMI-8226 leukemia
[9] = tested on: CCRF-CEM leukemia
[10] = tested on: EKVX NSCLC
[11] = tested on: SK-MEL-5 melanoma
[12] = tested on: SF-539 CNS
[13] = tested on: HL-60(TB) leukemia
[14] = tested on: MOLT-4 leukemia
[15] = tested on: HCC-2998 colon
[16] = tested on: UO-31 renal
[17] = tested on: A549 NSCLC
[18] = tested on: NCI-H460 lung
[19] = tested on: MDA-MB-231 breast
[20] = tested on: MDA-MB-435
[21] = tested on: RXF 393 renal
[22] = tested on: HS 578T breast
[23] = tested on: M14 melanoma
[24] = tested on: TK-10 renal
[25] = tested on: U251 CNS
[26] = tested on: NCI-H522 lung
[27] = tested on: SK-MEL-28 melanoma
[28] = tested on: SF-268 CNS
[29] = tested on: NCI/ADR-RES ovarian
[30] = tested on: UACC-257 melanoma
[31] = tested on: KM12 colon
[32] = tested on: OVCAR-8 ovarian
[33] = tested on: K-562 leukemia
[34] = tested on: CAKI-1 renal
[35] = tested on: SF-295 CNS
[36] = tested on: OVCAR-3 ovarian
[37] = tested on: SN12C renal
[38] = tested on: SNB-75 CNS
[39] = tested on: SK-OV-3 ovarian
[40] = tested on: HCT-116 colon
[41] = tested on: OVCAR-4 ovarian
[42] = tested on: MALME-3M melanoma
[43] = tested on: DU-145 prostate
[44] = tested on: HT29 colon
[45] = tested on: 786-0 renal
[46] = tested on: SW-620 colon
[47] = tested on: HCT-15 colon
[48] = tested on: ACHN renal
[49] = tested on: IGROV1 ovarian
[50] = tested on: UACC-62 melanoma
[51] = tested on: HOP-62 NSCLC
[52] = tested on: T-47D breast
[53] = tested on: SK-MEL-2 melanoma
[54] = tested on: BT-549 breast
[55] = tested on: PC-3 prostate
[56] = tested on: HOP-92 NSCLC

Cn1cc(-c2cc3ncnc(Nc4ccc(NC(=O)Nc5cc(C(C)(C)C)on5)cc4)c3s2)cn1
GI50 [1]: 390 nM
TGI [1]: 5170 nM
GI50 [2]: 436 nM
TGI [2]: 6420 nM
GI50 [3]: 764 nM
TGI [3]: 6540 nM
GI50 [4]: 3490 nM
TGI [4]: 21000 nM
GI50 [5]: 517 nM
TGI [5]: 19700 nM
GI50 [6]: 3740 nM
TGI [6]: > 38300 nM
GI50 [7]: 933 nM
TGI [7]: 4860 nM
GI50 [8]: 441 nM
TGI [8]: 2470 nM
GI50 [9]: 366 nM
TGI [9]: 2880 nM
GI50 [10]: 1750 nM
TGI [10]: 15000 nM
GI50 [11]: 904 nM
TGI [11]: 2860 nM
GI50 [12]: 216 nM
TGI [12]: 1870 nM
GI50 [13]: 1100 nM
TGI [13]: 3510 nM
GI50 [14]: 397 nM
GI50 [15]: 2500 nM
TGI [15]: 11000 nM
GI50 [16]: 320 nM
TGI [16]: 9340 nM
GI50 [17]: 764 nM
TGI [17]: 39300 nM
GI50 [18]: 296 nM
TGI [18]: 23800 nM
GI50 [19]: 1740 nM
TGI [19]: 31700 nM
GI50 [20]: 600 nM
TGI [20]: 18100 nM
GI50 [21]: 307 nM
TGI [21]: 1550 nM
GI50 [22]: 400 nM
TGI [22]: 6550 nM
GI50 [23]: 244 nM
TGI [23]: 4270 nM
GI50 [24]: 2980 nM
TGI [24]: 17700 nM
GI50 [25]: 1450 nM
TGI [25]: > 40300 nM
GI50 [26]: 916 nM
TGI [26]: 5150 nM
GI50 [27]: 1060 nM
TGI [27]: 10500 nM
GI50 [28]: 1360 nM
TGI [28]: > 37200 nM
GI50 [29]: 2950 nM
TGI [29]: > 44500 nM
GI50 [30]: 2120 nM
TGI [30]: 14700 nM
GI50 [31]: 35.1 nM
TGI [31]: 18200 nM
GI50 [32]: 864 nM
TGI [32]: > 100000 nM
GI50 [33]: 295 nM
TGI [33]: > 100000 nM
GI50 [34]: 170 nM
TGI [34]: 13900 nM
GI50 [35]: 552 nM
TGI [35]: 2220 nM
GI50 [36]: 1970 nM
TGI [36]: 8440 nM
GI50 [37]: 379 nM
TGI [37]: 28900 nM
GI50 [38]: 182 nM
TGI [38]: 4430 nM
GI50 [39]: 314 nM
TGI [39]: 16300 nM
GI50 [40]: 377 nM
TGI [40]: 6160 nM
GI50 [41]: 619 nM
TGI [41]: > 56700 nM
GI50 [42]: 348 nM
TGI [42]: 3760 nM
GI50 [43]: 686 nM
TGI [43]: > 34900 nM
GI50 [44]: 631 nM
TGI [44]: 3570 nM
GI50 [45]: 720 nM
TGI [45]: 8390 nM
GI50 [46]: 994 nM
TGI [46]: > 35600 nM
GI50 [47]: 490 nM
TGI [47]: > 28500 nM
GI50 [48]: 348 nM
TGI [48]: 13200 nM
GI50 [49]: 363 nM
TGI [49]: 21300 nM
GI50 [50]: 498 nM
TGI [50]: 8810 nM
GI50 [51]: 1870 nM
TGI [51]: 35900 nM
GI50 [52]: 513 nM
TGI [52]: > 29000 nM
GI50 [53]: 390 nM
TGI [53]: 2470 nM
GI50 [54]: 835 nM
TGI [54]: 4370 nM
GI50 [55]: 791 nM
TGI [55]: 13700 nM
GI50 [56]: 1560 nM
TGI [56]: 14900 nM
